# Measured values published in ChEMBL document CHEMBL1157213, “2-Amino-5-thiazolyl motif: a novel scaffold for designing anti-inflammatory agents of diverse structures” (Eur J Med Chem, 2008).
# How the values were obtained:
# Rattus norvegicus [1] = assay: Antiinflammatory activity against carrageenan-induced acute paw edema Sprague-Dawley rat inflammatory model assessed as reduction of paw volume at 100 mg/kg, po after 3 hrs relative to control; format: functional; design: scale not given: the % may be the effect or the level left
# Rattus norvegicus [2] = assay: Antiinflammatory activity against formalin-induced chronic paw edema rat inflammatory model assessed as reduction of paw volume at 100 mg/kg, po after 1 day relative to control; format: functional; design: scale not given: the % may be the effect or the level left
# Rattus norvegicus [3] = assay: Antiinflammatory activity against formalin-induced chronic paw edema rat inflammatory model assessed as reduction of paw volume at 100 mg/kg, po after 2 days relative to control; format: functional; design: scale not given: the % may be the effect or the level left
# Rattus norvegicus [4] = assay: Antiinflammatory activity against formalin-induced chronic paw edema rat inflammatory model assessed as reduction of paw volume at 100 mg/kg, po after 3 days relative to control; format: functional; design: scale not given: the % may be the effect or the level left
# Rattus norvegicus [5] = assay: Antiinflammatory activity against formalin-induced chronic paw edema rat inflammatory model assessed as reduction of paw volume at 100 mg/kg, po after 5 days relative to control; format: functional; design: scale not given: the % may be the effect or the level left
# [6] = biological target: Prostaglandin G/H synthase 1 (Homo sapiens) (UniProt P23219); assay: Inhibition of COX1 at 10 uM
# Prostaglandin G/H synthase 1 (Homo sapiens), sequence (P23219 whole entry): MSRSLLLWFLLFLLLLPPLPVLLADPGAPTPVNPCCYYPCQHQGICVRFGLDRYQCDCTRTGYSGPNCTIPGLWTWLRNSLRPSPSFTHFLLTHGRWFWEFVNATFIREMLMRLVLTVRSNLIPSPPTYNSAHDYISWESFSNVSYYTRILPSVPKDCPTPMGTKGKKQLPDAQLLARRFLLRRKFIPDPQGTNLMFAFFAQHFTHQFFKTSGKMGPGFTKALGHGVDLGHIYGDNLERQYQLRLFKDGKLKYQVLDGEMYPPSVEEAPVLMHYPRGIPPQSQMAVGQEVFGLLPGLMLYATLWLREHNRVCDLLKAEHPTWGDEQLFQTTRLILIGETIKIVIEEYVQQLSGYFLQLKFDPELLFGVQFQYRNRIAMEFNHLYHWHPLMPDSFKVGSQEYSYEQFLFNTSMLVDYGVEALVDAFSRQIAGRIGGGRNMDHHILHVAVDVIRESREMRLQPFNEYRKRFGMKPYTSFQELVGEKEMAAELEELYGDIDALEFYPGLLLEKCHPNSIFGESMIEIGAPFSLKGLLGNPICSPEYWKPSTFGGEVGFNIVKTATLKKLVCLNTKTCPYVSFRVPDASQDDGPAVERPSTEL
# [7] = biological target: T1, Prostaglandin G/H synthase 2 (Homo sapiens) (UniProt P35354); assay: Inhibition of COX2 at 10 uM
# T1 sequence (whole entry): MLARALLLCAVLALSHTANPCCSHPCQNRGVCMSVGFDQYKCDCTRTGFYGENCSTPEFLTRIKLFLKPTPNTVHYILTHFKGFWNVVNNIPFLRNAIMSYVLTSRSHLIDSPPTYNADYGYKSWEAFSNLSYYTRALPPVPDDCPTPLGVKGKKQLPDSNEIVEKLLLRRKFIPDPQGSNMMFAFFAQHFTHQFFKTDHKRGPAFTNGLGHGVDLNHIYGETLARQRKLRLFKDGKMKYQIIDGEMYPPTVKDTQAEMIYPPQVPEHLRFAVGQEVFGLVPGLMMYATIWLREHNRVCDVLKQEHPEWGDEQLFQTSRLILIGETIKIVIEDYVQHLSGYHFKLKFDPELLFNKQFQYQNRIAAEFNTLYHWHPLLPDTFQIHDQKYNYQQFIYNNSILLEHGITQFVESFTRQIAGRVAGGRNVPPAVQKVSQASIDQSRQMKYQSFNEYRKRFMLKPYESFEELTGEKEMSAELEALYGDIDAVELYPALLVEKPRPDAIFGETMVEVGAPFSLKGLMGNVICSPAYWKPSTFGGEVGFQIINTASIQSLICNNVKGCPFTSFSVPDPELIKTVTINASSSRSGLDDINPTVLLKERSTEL
# Rattus norvegicus [8] = assay: Toxic gastric-ulcerogenic effect in Sprague-Dawley rat assessed as lesion score at 100 mg/kg, po after 7 days; format: toxicity, organism-based; design: dose 100 mg/kg, route oral; details: in vivo, 168 h
# Rattus norvegicus [9] = assay: Antiinflammatory activity against formalin-induced chronic paw edema rat inflammatory model assessed as reduction of paw volume at 100 mg/kg, po after 4 days relative to control; format: functional; design: scale not given: the % may be the effect or the level left
# Rattus norvegicus [10] = assay: Antiinflammatory activity against formalin-induced chronic paw edema rat inflammatory model assessed as reduction of paw volume at 50 mg/kg, po after 1 day relative to control; format: functional; design: scale not given: the % may be the effect or the level left
# Rattus norvegicus [11] = assay: Antiinflammatory activity against formalin-induced chronic paw edema rat inflammatory model assessed as reduction of paw volume at 50 mg/kg, po after 2 days relative to control; format: functional; design: scale not given: the % may be the effect or the level left
# Rattus norvegicus [12] = assay: Antiinflammatory activity against formalin-induced chronic paw edema rat inflammatory model assessed as reduction of paw volume at 50 mg/kg, po after 3 days relative to control; format: functional; design: scale not given: the % may be the effect or the level left
# Rattus norvegicus [13] = assay: Antiinflammatory activity against formalin-induced chronic paw edema rat inflammatory model assessed as reduction of paw volume at 50 mg/kg, po after 4 days relative to control; format: functional; design: scale not given: the % may be the effect or the level left
# Rattus norvegicus [14] = assay: Antiinflammatory activity against formalin-induced chronic paw edema rat inflammatory model assessed as reduction of paw volume at 50 mg/kg, po after 5 days relative to control; format: functional; design: scale not given: the % may be the effect or the level left
# Rattus norvegicus [15] = assay: Antiinflammatory activity against carrageenan-induced acute paw edema Sprague-Dawley rat inflammatory model assessed as reduction of paw volume at 50 mg/kg, po after 3 hrs relative to control; format: functional; design: scale not given: the % may be the effect or the level left
# Rattus norvegicus [16] = assay: Antiinflammatory activity against formalin-induced chronic paw edema rat inflammatory model assessed as reduction of paw volume at 5 mg/kg, po after 1 day relative to control; format: functional; design: scale not given: the % may be the effect or the level left
# Rattus norvegicus [17] = assay: Antiinflammatory activity against formalin-induced chronic paw edema rat inflammatory model assessed as reduction of paw volume at 5 mg/kg, po after 2 days relative to control; format: functional; design: scale not given: the % may be the effect or the level left
# Rattus norvegicus [18] = assay: Antiinflammatory activity against formalin-induced chronic paw edema rat inflammatory model assessed as reduction of paw volume at 5 mg/kg, po after 3 days relative to control; format: functional; design: scale not given: the % may be the effect or the level left
# Rattus norvegicus [19] = assay: Antiinflammatory activity against formalin-induced chronic paw edema rat inflammatory model assessed as reduction of paw volume at 5 mg/kg, po after 4 days relative to control; format: functional; design: scale not given: the % may be the effect or the level left
# Rattus norvegicus [20] = assay: Antiinflammatory activity against formalin-induced chronic paw edema rat inflammatory model assessed as reduction of paw volume at 5 mg/kg, po after 5 days relative to control; format: functional; design: scale not given: the % may be the effect or the level left
# Rattus norvegicus [21] = assay: Antiinflammatory activity against carrageenan-induced acute paw edema Sprague-Dawley rat inflammatory model assessed as reduction of paw volume at 5 mg/kg, po after 3 hrs relative to control; format: functional; design: scale not given: the % may be the effect or the level left
Structure (SMILES),Activity (Rattus norvegicus [1]),Activity (Rattus norvegicus [2]),Activity (Rattus norvegicus [3]),Activity (Rattus norvegicus [4]),Activity (Rattus norvegicus [5]),inhibition [6],inhibition [7],Activity (Rattus norvegicus [8]),Activity (Rattus norvegicus [9]),further results
O=C(Nc1nc(-c2ccccc2)c(C(=O)C(=O)c2sc(NC(=O)c3ccccc3)nc2-c2ccccc2)s1)c1ccccc1,73%,88%,92%,84%,41%,6.31%,19.3%,12 mm,38%,–
CS(=O)(=O)c1ccc(C(=O)c2sc(N3CCOCC3)nc2-c2ccccc2)cc1,63%,88%,44%,42%,27%,-5.91%,10.4%,–,38%,–
COC(=O)Nc1nc(N(C)C)c(C(=O)c2ccc(S(C)(=O)=O)cc2)s1,30%,29%,40%,26%,0%,4.13%,15.2%,–,43%,–
CC(C)Cc1ccc(C(C)C(=O)O)cc1 (stereo not given) [IBUPROFEN],–,–,–,–,–,–,–,12 mm,–,–
CC(=O)Oc1ccccc1C(=O)O [ASPIRIN],–,–,–,–,–,–,–,5 mm,–,–
CS(=O)(=O)c1ccc(C2=C(c3ccccc3)C(=O)OC2)cc1 [ROFECOXIB],–,–,–,–,–,–,–,–,–,Activity (Rattus norvegicus [10]): 39%; Activity (Rattus norvegicus [11]): 32%; Activity (Rattus norvegicus [12]): 35%; Activity (Rattus norvegicus [13]): 29%; Activity (Rattus norvegicus [14]): 30%; Activity (Rattus norvegicus [15]): 40%
CNc1nc(N(C)C)c(C(=O)/C(=N/OC)C(=O)OC)s1,83%,96%,90%,95%,66%,-6.25%,19.5%,–,72%,–
C[C@@H]1C[C@H]2[C@@H]3CCC4=CC(=O)C=C[C@]4(C)[C@@]3(F)[C@@H](O)C[C@]2(C)[C@@]1(O)C(=O)CO [DEXAMETHASONE],–,–,–,–,–,–,–,–,–,Activity (Rattus norvegicus [16]): 70%; Activity (Rattus norvegicus [17]): 92%; Activity (Rattus norvegicus [18]): 96%; Activity (Rattus norvegicus [19]): 89%; Activity (Rattus norvegicus [20]): 94%; Activity (Rattus norvegicus [21]): 85%
CCOC(=O)Nc1nc(C)c(/C(=N\O)c2ccc(S(C)(=O)=O)cc2)s1,69%,29%,78%,72%,5%,-3.61%,8.91%,–,47%,–
